This passage reports IC50 results from patent US20230174485A1, “LIPOXYGENASE INHIBITORS” (SRI International, priority 2020, published 2023).

Where “and” joins values, the source holds several entries; their conditions need not be identical. Equal values may be shown once. Read-outs that look alike come from different tables or passages of the source.

Type in all cases: biochemical
Experiment [1] addresses T1, recombinant 15-LOX enzyme (Homo sapiens, UniProt P16050).
T1 sequence (P16050 1-662): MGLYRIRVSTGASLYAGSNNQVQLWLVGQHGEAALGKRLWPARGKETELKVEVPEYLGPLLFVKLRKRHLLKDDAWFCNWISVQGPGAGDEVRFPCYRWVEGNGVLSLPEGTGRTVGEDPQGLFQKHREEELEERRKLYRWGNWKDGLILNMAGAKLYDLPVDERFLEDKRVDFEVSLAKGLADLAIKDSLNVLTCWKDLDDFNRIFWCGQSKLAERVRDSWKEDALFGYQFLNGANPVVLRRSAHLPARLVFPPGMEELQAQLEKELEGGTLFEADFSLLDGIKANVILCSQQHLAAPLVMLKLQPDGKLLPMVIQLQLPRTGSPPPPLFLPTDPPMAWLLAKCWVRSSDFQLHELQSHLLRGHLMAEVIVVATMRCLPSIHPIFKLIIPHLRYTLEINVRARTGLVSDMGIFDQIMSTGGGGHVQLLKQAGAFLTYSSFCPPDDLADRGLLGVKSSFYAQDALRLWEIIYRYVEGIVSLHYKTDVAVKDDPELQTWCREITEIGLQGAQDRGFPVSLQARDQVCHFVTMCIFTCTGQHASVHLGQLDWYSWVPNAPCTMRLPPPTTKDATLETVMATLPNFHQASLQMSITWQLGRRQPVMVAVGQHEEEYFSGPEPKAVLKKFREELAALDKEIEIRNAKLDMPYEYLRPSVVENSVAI
Description: 15-LOX fluorescent assay. The conditions noted are these: several values in one cell = repeat determinations. The method in brief: (§1)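 Compounds pre-incubated 15 min with 100 nM 12-LOX or 50 nM 15-LOX in 50 mM Tris pH 7.5, 0.05% Tween-20; reaction started with 20 μM AA/LA plus 1 μM DHR123.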

Experiment [2] deals with T2, recombinant 12-LOX enzyme (Homo sapiens, UniProt P18054).
T2 sequence (P18054 1-663): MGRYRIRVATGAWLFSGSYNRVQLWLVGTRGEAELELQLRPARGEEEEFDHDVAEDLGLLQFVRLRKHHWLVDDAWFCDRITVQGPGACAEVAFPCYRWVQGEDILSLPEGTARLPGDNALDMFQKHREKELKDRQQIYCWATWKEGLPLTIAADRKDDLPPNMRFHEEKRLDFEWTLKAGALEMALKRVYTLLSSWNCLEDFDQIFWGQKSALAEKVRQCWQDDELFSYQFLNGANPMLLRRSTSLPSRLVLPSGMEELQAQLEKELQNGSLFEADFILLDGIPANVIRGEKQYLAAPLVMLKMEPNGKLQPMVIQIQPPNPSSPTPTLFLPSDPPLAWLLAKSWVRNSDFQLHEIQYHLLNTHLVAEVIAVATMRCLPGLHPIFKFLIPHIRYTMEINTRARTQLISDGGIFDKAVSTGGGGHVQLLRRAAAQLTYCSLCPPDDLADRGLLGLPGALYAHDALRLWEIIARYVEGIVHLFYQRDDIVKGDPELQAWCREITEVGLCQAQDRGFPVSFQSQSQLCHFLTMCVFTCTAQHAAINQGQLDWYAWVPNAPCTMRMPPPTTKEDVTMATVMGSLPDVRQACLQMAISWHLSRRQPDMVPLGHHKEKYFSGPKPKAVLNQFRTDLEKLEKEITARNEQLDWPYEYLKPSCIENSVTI
Description: 12-LOX fluorescent assay. The note with it: several values in one cell = repeat determinations. The method in brief:
as §1

The next experiment addresses T3, recombinant 5-LOX (Homo sapiens, UniProt P09917).
T3 sequence (P09917 1-674): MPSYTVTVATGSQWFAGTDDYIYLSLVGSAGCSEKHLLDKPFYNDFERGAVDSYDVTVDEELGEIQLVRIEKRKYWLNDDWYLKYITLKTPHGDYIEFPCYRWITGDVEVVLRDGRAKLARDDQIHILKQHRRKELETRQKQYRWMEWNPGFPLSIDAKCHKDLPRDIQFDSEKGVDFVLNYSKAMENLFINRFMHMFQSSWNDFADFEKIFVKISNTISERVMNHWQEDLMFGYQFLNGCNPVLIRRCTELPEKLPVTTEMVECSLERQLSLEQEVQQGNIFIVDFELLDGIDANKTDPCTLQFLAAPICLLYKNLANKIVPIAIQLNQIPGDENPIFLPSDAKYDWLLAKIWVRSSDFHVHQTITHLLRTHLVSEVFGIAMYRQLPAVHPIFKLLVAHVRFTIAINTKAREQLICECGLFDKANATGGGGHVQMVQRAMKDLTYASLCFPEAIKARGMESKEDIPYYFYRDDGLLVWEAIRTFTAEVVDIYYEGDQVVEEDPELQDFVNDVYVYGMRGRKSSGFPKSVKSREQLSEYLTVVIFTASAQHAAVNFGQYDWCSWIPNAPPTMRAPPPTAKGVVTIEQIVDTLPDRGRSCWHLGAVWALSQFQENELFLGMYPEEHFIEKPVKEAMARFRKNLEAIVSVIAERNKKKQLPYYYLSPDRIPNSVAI
Description: 5-LOX fluorescent assay. The conditions noted are these: several values in one cell = repeat determinations; read-out: IC50 (μM) values for in vitro lipoxygenase inhibition, 5-LOX. The method in brief:
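Lysate containing recombinant 5-LOX was pre-incubated 15 min with compounds in 50 mM Tris pH 7.5, 0.1 mM EDTA, 0.3 mM CaCl2. The reaction was started with 20 μM arachidonic acid, 100 μM ATP and 1 μM DHR123.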

Where [3] appears, read: read-out: IC50 (μM) values for in vitro lipoxygenase inhibition, 15-LOX.
Where [4] appears, read: read-out: IC50 (μM) values for in vitro lipoxygenase inhibition, 12-LOX.
The mark [5] stands for this setting: IC50 (μM) values for in vitro lipoxygenase inhibition, 15-LOX.
The mark [6] stands for this setting: IC50 (μM) values for in vitro lipoxygenase inhibition, 12-LOX.

As to `c1ccc(NC2CCc3[nH]c4ccccc4c3C2)cc1` (stereo not drawn) [SS20308-0158-01, N-phenyl-2,3,4,9-tetrahydro-1H-carbazol-3-amine], the IC50 in experiment [1] (setting [3]) is 1.55 µM; in experiment [2] (setting [4]), 3.16 µM; at recombinant 5-LOX, 3.75 µM.
In the case of `CN(C)CCCNc1ccc2c(c1)Nc1ccccc1CC2` [SS20308-0270-01, N^1-(10,11-dihydro-5H-dibenzo[b,f]azepin-3-yl)-N^3,N^3-dimethylpropane-1,3-diamine], the IC50 in experiment [1] (setting [3]) was 1.08 µM and 0.9 µM; in experiment [2] (setting [4]), 0.1 µM; at recombinant 5-LOX, 0.15 µM.
In the case of `c1ccc2c(c1)CCc1ccc(NCCn3cncn3)cc1N2` [SS20308-0224-01, N-(2-(1H-1,2,4-triazol-1-yl)ethyl)-10,11-dihydro-5H-dibenzo[b,f]azepin-3-amine], the values for the half-maximal inhibitory concentration (IC50) (in experiment [1] (setting [3]); in experiment [2] (setting [4]); on recombinant 5-LOX) were 1.12 µM, 0.11 µM and 0.22 µM, respectively.
The like results for `Fc1ccc2[nH]c3cc4c(c(F)c3c2c1)CCN4CCn1cncn1` [SS20308-0207-01, 1-(2-(1H-1,2,4-triazol-1-yl)ethyl)-4,6-difluoro-1,2,3,9-tetrahydropyrrolo[2,3-b]carbazole] were, in that order, 1.15 µM, 0.1 µM and 0.59 µM.
The like results for `Fc1ccc2[nH]c3c(NCCn4cncn4)c(-c4ccccc4)ccc3c2c1` [SS20308-0154-01, N-(2-(1H-1,2,4-triazol-1-yl)ethyl)-6-fluoro-2-phenyl-9H-carbazol-1-amine] were, in that order, 0.44 µM, 0.35 µM and 1.06 µM.
Turning to `c1ccc2c(c1)[nH]c1cc3c(cc12)CCN3CCn1cncn1` [SS20308-0180-01, 1-(2-(1H-1,2,4-triazol-1-yl)ethyl)-1,2,3,9-tetrahydropyrrolo[2,3-b]carbazole], the 50% inhibitory concentration (IC50) in experiment [1] (setting [3]) is 0.39 µM and 0.51 µM; in experiment [2] (setting [4]), 0.03 µM and 0.08 µM; on recombinant 5-LOX, 0.44 µM and 0.81 µM.
`COc1ccc2c([nH]c3ccc(F)cc32)c1OCCN(C)C` [SS20308-0007-01, 2-(6-fluoro-2-methoxy-9H-carbazol-1-yloxy)-N,N-dimethylethanamine]: the IC50 in experiment [1] (setting [5]) came out at 8.64 µM; in experiment [2] (setting [4]) it was 22 µM; at recombinant 5-LOX, 32.2 µM.
For `CN(C)C/C=C\c1c2[nH]c3ccccc3c2cc2[nH]c3ccccc3c12` [SS20308-0126-01, (Z)-3-(5,11-dihydroindolo[3,2-b]carbazol-6-yl)-N,N-dimethylprop-2-en-1-amine], the IC50 (in experiment [1] (setting [5]); in experiment [2] (setting [6]); at recombinant 5-LOX) was 0.04 µM throughout.
For the molecule `COc1ccc2c([nH]c3ccc(F)cc32)c1CCCN(C)C` [SS20308-0118-01, 3-(6-fluoro-2-methoxy-9H-carbazol-1-yl)-N,N-dimethylpropan-1-amine], the concentration for half-maximal inhibition (IC50) came out at 26.9 µM in experiment [1] (setting [5]), 24.2 µM in experiment [2] (setting [4]) and 23.2 µM at recombinant 5-LOX.
`c1ccc2c(c1)[nH]c1c(OCCn3cncn3)c3c(cc12)[nH]c1ccccc13` [SS20308-0059-01, 6-(2-(1H-1,2,4-triazol-1-yl)ethoxy)-5,11-dihydroindolo[3,2-b]carbazole]: the 50% inhibitory concentration (IC50) is 0.03 µM and 0.02 µM in experiment [1] (setting [5]); 0.03 µM and 0.02 µM in experiment [2] (setting [6]); 0.04 µM and 0.03 µM on recombinant 5-LOX.
On to `CN(C)CCOc1c(NCc2ccccc2)ccc2c1[nH]c1ncccc12` [SS20308-0047-01, N-benzyl-8-(2-(dimethylamino)ethoxy)-9H-pyrido[2,3-b]indol-7-amine], for which the IC50 is 1.13 µM and 1.93 µM in experiment [1] (setting [5]); 0.36 µM and 0.49 µM in experiment [2] (setting [4]); 0.36 µM and 0.82 µM on recombinant 5-LOX.
Consider `CN(C)CCOc1cc2c3ncccc3[nH]c2c2c1[nH]c1cccnc12` [SS20308-0070-01], for which the half-maximal inhibitory concentration (IC50) in experiment [1] (setting [3]) stood at 4.53 µM; in experiment [2] (setting [4]), 6.32 µM; at recombinant 5-LOX, 9.17 µM.
In the same order, the values of `CN(C)CCOc1ccc(Cl)c2c1-c1[nH]c3ccc(F)cc3c1CS2` [SS20308-0093-01, 2-(4-chloro-8-fluoro-6,11-dihydrothiochromeno[4,3-b]indol-1-yloxy)-N,N-dimethylethanamine] are 2.37 µM, 1.69 µM and 1.46 µM.
